# From article PMC9048847 (RSC Advances, 2020)
# Target: human thrombin (Homo sapiens, UniProt P00734)
# Experiment: Fluorescence-based thrombin inhibition assay
# Type: biochemical
Compound,Anti-thrombin activity (in words),IC50
"O=C(/C=C/c1ccc(O[C@@H]2O[C@H](CO)[C@@H](O)[C@H](O)[C@H]2O)cc1)c1ccc(O)cc1O [compound 1, isoliquiritin]",moderate,38.8 ± 4.04 µM
"O=C(/C=C/c1ccc(O)cc1)c1ccc(O)cc1O [compound 2, isoliquiritigenin]",moderate,17.9 ± 2.75 µM
"COc1cc(O)ccc1/C=C/C(=O)c1ccc(O)cc1 [compound 6, echinatin]",moderate,28.5 ± 2.65 µM
"CC(C)=CCc1cc([C@@H]2CC(=O)c3ccc(O)c(CC=C(C)C)c3O2)ccc1O [compound 11, glabrol]",,> 100 µM
"O=C1C[C@@H](c2ccc(O[C@@H]3O[C@H](CO)[C@@H](O)[C@H](O)[C@H]3O)cc2)Oc2cc(O)ccc21 [compound 12, liquiritin]",,> 100 µM
"CC(C)=CCc1c(O)cc2oc(-c3ccc(O)cc3)c(O)c(=O)c2c1O [compound 14, licoflavonol]",,> 100 µM
"CC(C)=CCc1cc(-c2oc3cc(O)cc(O)c3c(=O)c2O)ccc1O [compound 15, isolicoflavonol]",,> 100 µM
"COc1c(CC=C(C)C)c(O)cc2oc(=O)c(-c3ccc(O)cc3O)cc12 [compound 16, glycycoumarin]",,> 100 µM
"COc1c2c(cc3oc(=O)c4c5ccc(O)cc5oc4c13)OC(C)(C)CC2 [compound 17, isoglycyrol]",,> 100 µM
"CC1(C)[C@@H](O)CC[C@]2(C)[C@H]3C(=O)C=C4[C@@H]5C[C@@](C)(C(=O)O)CC[C@]5(C)CC[C@@]4(C)[C@]3(C)CC[C@@H]12 [compound 18, glycyrrhetinic acid]",,> 100 µM
"CC1(C)[C@@H](O[C@H]2O[C@H](C(=O)O)[C@@H](O)[C@H](O)[C@H]2O[C@@H]2O[C@H](C(=O)O)[C@@H](O)[C@H](O)[C@H]2O)CC[C@]2(C)[C@H]3C(=O)C=C4[C@@H]5C[C@@](C)(C(=O)O)CC[C@]5(C)CC[C@@]4(C)[C@]3(C)CC[C@@H]12 [compound 19, glycyrrhizic acid]",,> 100 µM
"CC1(C)C=Cc2c(ccc3c2OC[C@@H](c2ccc(O)cc2O)C3)O1 [compound 20, glabridin]",,> 100 µM
"COc1cc(O)c2c(=O)cc(-c3ccc(OC)c(-c4c(O)cc(O)c5c(=O)cc(-c6ccc(O)cc6)oc45)c3)oc2c1 [compound 22, Ginkgetin, reference compound]",,8.05 ± 1.5 µM
"O=c1cc(-c2ccccc2)oc2cc(O)c(O)c(O)c12 [compound 23, Baicalein, reference compound]",,36.1 ± 4.68 µM
isoliquiritin apioside [compound 8],moderate,
